# “And” between values parts separate entries of the source, which are not always exact repeats. Equal values may be shown once. The source made the active and inactive calls. How the source made its calls: active means viability on the fitted dose curve at most 10% of control; inactive means the rest.
# System: NCI-H196 SCLC complex tumor spheroid viability
# Experiment: Anticancer human tumor NCI-H196 cell line growth inhibition;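 on IC50: spheroids exposed to compounds for 7 days before readout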;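 on viability, T/C: spheroids exposed to compounds for 7 days before readout; 100% = DMSO vehicle control wells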
# Settings: for viability, T/C: stronger effect = lower value
# Method in brief: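 Single agents and combinations were tested on spheroids built from tumor cells plus HUVEC and hMSC, at half-log dilutions starting at or near clinical Cmax, else 10 microM; final DMSO 0.25% (v/v).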
# [1] = curve of first compound, second compound 0.003 µM
# [2] = second compound 0.003 µM, first compound 0.0316 µM
# [3] = second compound 0.003 µM, first compound 0.1 µM
# [4] = second compound 0.003 µM, first compound 0.316 µM
# [5] = second compound 0.003 µM, first compound 1 µM
# [6] = second compound 0.003 µM, first compound 3.16 µM
# [7] = second compound 0.003 µM, first compound 10 µM
smiles,measurement,setting,value
Cc1cc(C)c(CNC(=O)c2cc(-c3ccc(CN4CCOCC4)cc3)cc3c2cnn3C2CCCC2)c(=O)[nH]1 + COc1cc2c(cc1O)CCNC21CSC2c3c(OC(C)=O)c(C)c4c(c3C(COC1=O)N1C(O)C3Cc5cc(C)c(OC)c(O)c5C(C21)N3C)OCO4,IC50,"curve of first compound, second compound 30 pM",> 10 µM
same,IC50,"curve of first compound, second compound 94.9 pM",> 10 µM
same,IC50,"curve of first compound, second compound 0.0003 µM",> 10 µM
same,IC50,"curve of first compound, second compound 0.000949 µM",> 10 µM
same,IC50,[1],< 0.0316 µM
same,"viability, T/C","second compound 30 pM, first compound 0.0316 µM",106%
same,"viability, T/C","second compound 30 pM, first compound 0.1 µM",104%
same,"viability, T/C","second compound 30 pM, first compound 0.316 µM",105%
same,"viability, T/C","second compound 30 pM, first compound 1 µM",103%
same,"viability, T/C","second compound 30 pM, first compound 3.16 µM",97.2%
same,"viability, T/C","second compound 30 pM, first compound 10 µM",105%
same,"viability, T/C","second compound 94.9 pM, first compound 0.0316 µM",109%
same,"viability, T/C","second compound 94.9 pM, first compound 0.1 µM",101%
same,"viability, T/C","second compound 94.9 pM, first compound 0.316 µM",99.5%
same,"viability, T/C","second compound 94.9 pM, first compound 1 µM",104%
same,"viability, T/C","second compound 94.9 pM, first compound 3.16 µM",107%
same,"viability, T/C","second compound 94.9 pM, first compound 10 µM",106%
same,"viability, T/C","second compound 0.0003 µM, first compound 0.0316 µM",103%
same,"viability, T/C","second compound 0.0003 µM, first compound 0.1 µM",105%
same,"viability, T/C","second compound 0.0003 µM, first compound 0.316 µM",105%
same,"viability, T/C","second compound 0.0003 µM, first compound 1 µM",105%
same,"viability, T/C","second compound 0.0003 µM, first compound 3.16 µM",102%
same,"viability, T/C","second compound 0.0003 µM, first compound 10 µM",104%
same,"viability, T/C","second compound 0.000949 µM, first compound 0.0316 µM",87.8%
same,"viability, T/C","second compound 0.000949 µM, first compound 0.1 µM",94.6%
same,"viability, T/C","second compound 0.000949 µM, first compound 0.316 µM",91.8%
same,"viability, T/C","second compound 0.000949 µM, first compound 1 µM",83.9%
same,"viability, T/C","second compound 0.000949 µM, first compound 3.16 µM",85%
same,"viability, T/C","second compound 0.000949 µM, first compound 10 µM",85%
same,"viability, T/C",[2],6.27%
same,"viability, T/C",[3],7.07%
same,"viability, T/C",[4],9.74%
same,"viability, T/C",[5],5.44%
same,"viability, T/C",[6],5.81%
same,"viability, T/C",[7],3.71%
CC(C)n1c(=O)n(C)c2cnc3cc(F)c(-c4ccc(OCCCN5CCCCC5)nc4)cc3c21,"viability, T/C",compound 0.0316 µM,102% (2×) and 93.8%
same,"viability, T/C",compound 0.1 µM,106% and 97.1% and 100%
same,"viability, T/C",compound 0.316 µM,105% and 95.7% and 95.9%
same,"viability, T/C",compound 1 µM,108% and 102% and 105%
same,"viability, T/C",compound 3.16 µM,113% and 112% and 110%
same,"viability, T/C",compound 10 µM,108% and 110% and 111%
same,IC50,curve of compound,> 10 µM
COc1cc(C)[nH]c(=O)c1CN1CCc2c(Cl)cc(C(OC)C3COC3)c(Cl)c2C1=O (configuration not stated),"viability, T/C",compound 0.0316 µM,93.9% and 96.1% and 106%
same,"viability, T/C",compound 0.1 µM,101% (2×) and 102%
same,"viability, T/C",compound 0.316 µM,92.7% and 96% and 91.1%
same,"viability, T/C",compound 1 µM,101% and 94.2% and 103%
same,"viability, T/C",compound 3.16 µM,97.1% and 89.7% and 101%
same,"viability, T/C",compound 10 µM,94.5% and 97.7% and 100%
same,IC50,curve of compound,> 10 µM
COc1cc(C)[nH]c(=O)c1CN1CCc2c(Cl)cc(C(OC)C3COC3)c(Cl)c2C1=O (configuration not stated) + CC[C@@]1(O)C(=O)OCc2c1cc1n(c2=O)Cc2cc3c(CN(C)C)c(O)ccc3nc2-1,IC50,[1],> 10 µM
same,IC50,"curve of first compound, second compound 0.00949 µM",> 10 µM
same,IC50,"curve of first compound, second compound 0.03 µM",> 10 µM
same,IC50,"curve of first compound, second compound 0.0949 µM",> 10 µM
same,IC50,"curve of first compound, second compound 0.3 µM",> 10 µM
same,"viability, T/C",[2],108%
same,"viability, T/C",[3],105%
same,"viability, T/C",[4],99.9%
same,"viability, T/C",[5],101%
same,"viability, T/C",[6],103%
same,"viability, T/C",[7],97.8%
same,"viability, T/C","second compound 0.00949 µM, first compound 0.0316 µM",102%
same,"viability, T/C","second compound 0.00949 µM, first compound 0.1 µM",98.6%
same,"viability, T/C","second compound 0.00949 µM, first compound 0.316 µM",91.5%
same,"viability, T/C","second compound 0.00949 µM, first compound 1 µM",93.3%
same,"viability, T/C","second compound 0.00949 µM, first compound 3.16 µM",99.6%
same,"viability, T/C","second compound 0.00949 µM, first compound 10 µM",106%
same,"viability, T/C","second compound 0.03 µM, first compound 0.0316 µM",99.3%
same,"viability, T/C","second compound 0.03 µM, first compound 0.1 µM",93.5%
same,"viability, T/C","second compound 0.03 µM, first compound 0.316 µM",97.5%
same,"viability, T/C","second compound 0.03 µM, first compound 1 µM",89.2%
same,"viability, T/C","second compound 0.03 µM, first compound 3.16 µM",95.7%
same,"viability, T/C","second compound 0.03 µM, first compound 10 µM",99.3%
same,"viability, T/C","second compound 0.0949 µM, first compound 0.0316 µM",106%
same,"viability, T/C","second compound 0.0949 µM, first compound 0.1 µM",109%
same,"viability, T/C","second compound 0.0949 µM, first compound 0.316 µM",99.8%
same,"viability, T/C","second compound 0.0949 µM, first compound 1 µM",102%
same,"viability, T/C","second compound 0.0949 µM, first compound 3.16 µM",94.2%
same,"viability, T/C","second compound 0.0949 µM, first compound 10 µM",106%
same,"viability, T/C","second compound 0.3 µM, first compound 0.0316 µM",104%
same,"viability, T/C","second compound 0.3 µM, first compound 0.1 µM",101%
same,"viability, T/C","second compound 0.3 µM, first compound 0.316 µM",99.8%
same,"viability, T/C","second compound 0.3 µM, first compound 1 µM",102%
same,"viability, T/C","second compound 0.3 µM, first compound 3.16 µM",95.8%
same,"viability, T/C","second compound 0.3 µM, first compound 10 µM",88.7%
COc1ccc([C@@H](O)c2cc(-c3ncnc4cc(N5CCOCC5)ccc34)c(F)cc2Cl)nn1,"viability, T/C",compound 0.0316 µM,96.5% and 98.3% and 102%
same,"viability, T/C",compound 0.1 µM,101% and 94.9% and 98.9%
same,"viability, T/C",compound 0.316 µM,89.8% and 87.1% and 95.5%
same,outcome,compound 1 µM,inactive
same,"viability, T/C",compound 1 µM,78.1% and 80.4%
same,"viability, T/C",compound 3.16 µM,65% and 69% and 75.8%
same,"viability, T/C",compound 10 µM,49.7% and 56.2% and 59.8%
same,IC50,curve of compound,> 10 µM
[2H]c1nc(C)nc([2H])c1-c1cc(NC[C@@H](C)c2cccc3c(C(=O)NC)ccnc23)ncn1 + Cn1nnc2c(C(N)=O)ncn2c1=O,IC50,"curve of first compound, second compound 1 µM",> 10 µM
same,IC50,"curve of first compound, second compound 3.16 µM",> 10 µM
same,IC50,"curve of first compound, second compound 10 µM",> 10 µM
same,IC50,"curve of first compound, second compound 31.6 µM",> 10 µM
same,IC50,"curve of first compound, second compound 100 µM",> 10 µM
same,"viability, T/C","second compound 1 µM, first compound 0.0316 µM",94.1%
same,"viability, T/C","second compound 1 µM, first compound 0.1 µM",96.6%
same,"viability, T/C","second compound 1 µM, first compound 0.316 µM",97.9%
same,"viability, T/C","second compound 1 µM, first compound 1 µM",99.5%
same,"viability, T/C","second compound 1 µM, first compound 3.16 µM",105%
same,"viability, T/C","second compound 1 µM, first compound 10 µM",91.2%
same,"viability, T/C","second compound 3.16 µM, first compound 0.0316 µM",100%
same,"viability, T/C","second compound 3.16 µM, first compound 0.1 µM",104%
same,"viability, T/C","second compound 3.16 µM, first compound 0.316 µM",98.5%
same,"viability, T/C","second compound 3.16 µM, first compound 1 µM",97.5%
same,"viability, T/C","second compound 3.16 µM, first compound 3.16 µM",90.8%
same,"viability, T/C","second compound 3.16 µM, first compound 10 µM",96.9%
same,"viability, T/C","second compound 10 µM, first compound 0.0316 µM",110%
same,"viability, T/C","second compound 10 µM, first compound 0.1 µM",99.8%
same,"viability, T/C","second compound 10 µM, first compound 0.316 µM",97.7%
same,"viability, T/C","second compound 10 µM, first compound 1 µM",101%
same,"viability, T/C","second compound 10 µM, first compound 3.16 µM",101%
same,"viability, T/C","second compound 10 µM, first compound 10 µM",107%
same,"viability, T/C","second compound 31.6 µM, first compound 0.0316 µM",109%
same,"viability, T/C","second compound 31.6 µM, first compound 0.1 µM",104%
same,"viability, T/C","second compound 31.6 µM, first compound 0.316 µM",108%
same,"viability, T/C","second compound 31.6 µM, first compound 1 µM",112%
same,"viability, T/C","second compound 31.6 µM, first compound 3.16 µM",99.8%
same,"viability, T/C","second compound 31.6 µM, first compound 10 µM",118%
same,"viability, T/C","second compound 100 µM, first compound 0.0316 µM",101%
same,"viability, T/C","second compound 100 µM, first compound 0.1 µM",102%
same,"viability, T/C","second compound 100 µM, first compound 0.316 µM",99.3%
same,"viability, T/C","second compound 100 µM, first compound 1 µM",102%
same,"viability, T/C","second compound 100 µM, first compound 3.16 µM",103%
same,"viability, T/C","second compound 100 µM, first compound 10 µM",104%

# Reference: PubChem BioAssay AID1845208 (Molecular Pharmacology Branch, DTP, NCI, 2023)
